Measured values reported in paper PMC10059756, “New Thienobenzo/Naphtho-Triazoles as Butyrylcholinesterase Inhibitors: Design, Synthesis and Computational Study” (International Journal of Molecular Sciences, 2023).

Columns and labels:
[1] = biological target: AChE (EC 3.1.1.7, Electrophorus electricus) (Electrophorus electricus, UniProt O42275); experiment: biochemical; assay type: biochemical; settings: for IC50: Ellman's method, 5 min pre-incubation at 4 °C, triplicate
[2] = biological target: BChE (EC 3.1.1.8, equine serum) (Equus caballus, UniProt P81908); experiment: biochemical; assay type: biochemical; settings: for IC50: Ellman's method, 5 min pre-incubation at 4 °C, triplicate
Chain of BChE (EC 3.1.1.8, equine serum) (P81908 whole entry): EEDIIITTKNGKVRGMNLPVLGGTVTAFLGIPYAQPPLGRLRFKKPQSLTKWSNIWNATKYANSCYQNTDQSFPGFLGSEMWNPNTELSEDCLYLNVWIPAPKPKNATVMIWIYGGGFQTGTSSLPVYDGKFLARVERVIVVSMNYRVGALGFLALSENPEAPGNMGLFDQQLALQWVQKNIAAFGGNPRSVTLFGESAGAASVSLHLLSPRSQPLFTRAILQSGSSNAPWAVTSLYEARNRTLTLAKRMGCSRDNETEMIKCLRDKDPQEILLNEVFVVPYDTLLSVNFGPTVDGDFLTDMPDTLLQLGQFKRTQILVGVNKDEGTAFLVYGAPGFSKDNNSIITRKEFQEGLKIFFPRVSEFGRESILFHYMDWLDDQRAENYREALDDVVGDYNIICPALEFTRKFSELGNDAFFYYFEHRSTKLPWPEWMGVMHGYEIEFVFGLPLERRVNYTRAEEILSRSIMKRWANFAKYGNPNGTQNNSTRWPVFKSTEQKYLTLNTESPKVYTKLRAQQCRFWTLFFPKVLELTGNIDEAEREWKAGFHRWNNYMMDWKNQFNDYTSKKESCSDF

[3] = tested on: TNFα production; settings: cited from earlier work; for anti-inflammatory activity: previous series
[4] = tested on: BChE; design: method as in PMID 35870364, PMID 35228009; settings: previous research; cited from earlier work

Chain of AChE (EC 3.1.1.7, Electrophorus electricus) (O42275 24-633): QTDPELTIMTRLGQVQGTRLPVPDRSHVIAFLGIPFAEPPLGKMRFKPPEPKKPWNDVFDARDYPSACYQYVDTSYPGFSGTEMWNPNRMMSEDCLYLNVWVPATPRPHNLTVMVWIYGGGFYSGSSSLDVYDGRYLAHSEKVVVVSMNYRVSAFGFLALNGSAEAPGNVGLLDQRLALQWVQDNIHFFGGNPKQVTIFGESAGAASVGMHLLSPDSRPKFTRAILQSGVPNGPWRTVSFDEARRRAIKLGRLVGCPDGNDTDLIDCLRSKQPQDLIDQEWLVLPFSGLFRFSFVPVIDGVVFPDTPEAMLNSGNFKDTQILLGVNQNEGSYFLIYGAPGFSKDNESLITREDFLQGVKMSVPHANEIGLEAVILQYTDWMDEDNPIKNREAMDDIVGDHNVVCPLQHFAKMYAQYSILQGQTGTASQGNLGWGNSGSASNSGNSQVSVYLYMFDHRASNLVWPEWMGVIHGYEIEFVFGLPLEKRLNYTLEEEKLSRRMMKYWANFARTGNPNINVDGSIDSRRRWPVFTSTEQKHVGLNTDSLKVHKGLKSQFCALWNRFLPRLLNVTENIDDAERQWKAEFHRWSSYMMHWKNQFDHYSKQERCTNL

Structure (SMILES)	IC50 [1] [µM]	IC50 [2] [µM]	further results
CC(C)n1nnc2ccc3ccc(Cl)cc3c21 [Compound 1]	59.9	39.6	anti-inflammatory activity [3]: ten times weaker anti-inflammatory activity than 2
COc1ccc(Cn2nnc3ccc4ccc(OC)cc4c32)cc1 [Compound 2]	–	–	inhibitory activity toward AChE (in words) ([1]; final concentrations 10–500 μM): no inhibitory activity; inhibitory activity toward BChE (in words) ([2]; final concentrations 10–500 μM): no inhibitory activity; anti-inflammatory activity [3]: best anti-inflammatory activity of all the tested compounds
COc1ccc(Cn2nnc3ccc4sccc4c32)cc1 [Compound 3, 1-(4-methoxybenzyl)-1H-thieno[3′,2′:3,4]benzo[1,2-d][1,2,3]triazole]	116	25.5	–
Fc1ccc(Cn2nnc3ccc4sccc4c32)cc1 [Compound 4, 1-(4-fluorobenzyl)-1H-thieno[3′,2′:3,4]benzo[1,2-d][1,2,3]triazole]	97	37.5	–
c1csc(Cn2nnc3ccc4sccc4c32)c1 [Compound 5, 1-(thiophen-2-ylmethyl)-1H-thieno[3′,2′:3,4]benzo[1,2-d][1,2,3]triazole]	119	23.4	–
CCOC(=O)CCn1nnc2ccc3sccc3c21 [Compound 6, Ethyl 3-(1H-thieno[3′,2′:3,4]benzo[1,2-d][1,2,3]triazol-1-yl)propanoate]	–	39.6	–
FC(F)(F)c1ccc(Cn2nnc3ccc4sccc4c32)cc1 [Compound 7, 1-(4-(trifluoromethyl)benzyl)-1H-thieno[3′,2′:3,4]benzo[1,2-d][1,2,3]triazole]	140	> 150	–
FC(F)(F)Oc1ccc(Cn2nnc3ccc4sccc4c32)cc1 [Compound 8, 1-(4-(trifluoromethoxy)benzyl)-1H-thieno[3′,2′:3,4]benzo[1,2-d][1,2,3]triazole]	68	214	–
COc1ccc(CCn2nnc3ccc4sccc4c32)cc1 [Compound 9, 1-(4-methoxyphenethyl)-1H-thieno[3′,2′:3,4]benzo[1,2-d][1,2,3]triazole]	–	18.6	–
OCCCCn1nnc2ccc3sccc3c21 [Compound 12, 4-(1H-thieno[3′,2′:3,4]benzo[1,2-d][1,2,3]triazol-1-yl)butan-1-ol]	–	107	–
Fc1ccc(Cn2nnc3c2-c2ccsc2CC3)cc1 [Compound 13, 1-(4-fluorobenzyl)-4,5-dihydro-1H-thieno[3′,2′:3,4]benzo[1,2-d][1,2,3]triazole]	–	58	–
FC(F)(F)c1ccc(Cn2nnc3c2-c2ccsc2CC3)cc1 [Compound 14, 1-(4-(trifluoromethyl)benzyl)-4,5-dihydro-1H-thieno[3′,2′:3,4]benzo[1,2-d][1,2,3]triazole]	118	> 150	–
FC(F)(F)Oc1ccc(Cn2nnc3c2-c2ccsc2CC3)cc1 [Compound 15, 1-(4-(trifluoromethoxy)benzyl)-4,5-dihydro-1H-thieno[3′,2′:3,4]benzo[1,2-d][1,2,3]triazole]	88.7	–	–
COc1ccc(CCn2nnc3c2-c2ccsc2CC3)cc1 [Compound 16]	145	119	–
c1cc2c(s1)CCc1nnn(CCN3CCOCC3)c1-2 [Compound 17, 4-(2-(4,5-dihydro-1H-thieno[3′,2′:3,4]benzo[1,2-d][1,2,3]triazol-1-yl)ethyl)morpholine]	45.6	–	–
OCCCCn1nnc2c1-c1ccsc1CC2 [Compound 19, 4-(4,5-dihydro-1H-thieno[3′,2′:3,4]benzo[1,2-d][1,2,3]triazol-1-yl)butan-1-ol]	–	74.1	–
COc1ccc2c3c1O[C@H]1C[C@@H](O)C=C[C@@]31CCN(C)C2 [Galantamine, galantamine]	–	–	IC50 [4]: 7.9 µM
C=CCn1nnc2ccc3sccc3c21 [structure C, reference compound]	–	–	IC50 [4]: 3.8 µM; TNFα production inhibition ([3]; LPS-stimulated human PBMCs): good TNFα production inhibition
